Consider four compounds from patent US6420586B1 (priority 2000, dated 2002).

Assay type in all cases: biochemical
The subject of assay [1] is Herpes Simplex Virus Protease.
Another assay deals with T1, HIV protease (Human immunodeficiency virus type 1 group M subtype B, UniProt P04585).
T1 construct: a key virally encoded protease enzyme of the pol gene

In the next assay the target is T2, human cathepsin K (Homo sapiens, UniProt P43235).
T2 sequence (P43235 115-329): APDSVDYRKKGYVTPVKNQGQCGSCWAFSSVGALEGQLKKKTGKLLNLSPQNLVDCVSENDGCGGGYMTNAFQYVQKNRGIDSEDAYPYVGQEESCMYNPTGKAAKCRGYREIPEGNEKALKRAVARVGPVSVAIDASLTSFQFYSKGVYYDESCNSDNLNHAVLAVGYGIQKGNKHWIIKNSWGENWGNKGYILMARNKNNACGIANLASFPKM
The experiment in a line: Inhibition of human cathepsin K (fluorescence peptide assay). As to conditions: compound concentration 106 μmolar; pH 5.5, 10 μmolar peptide. The procedure:
The inhibition of human cathepsin K by the compound shown in Scheme N (106 μmolar) was determined. The peptides utilized were chromophoric Z-Phe-Arg-pNA*HCl and fluorogenic Z-Phe-Arg-AMC (each available from BACHEM Bioscience, Inc.). Stock solutions were prepared with 100% dimethylsulfoxide (DMSO) and stored at −20° C.
The final assay conditions were 100 mM NaOAc, pH of 5.5, 10 mM (R,R)-dithiothreitol (DTT), 10% DMSO, 120 mM NaCl, 10 μmolar of the peptide, and 12.5-0.012 μmolar inhibitor in twofold serial dilutions from 20× stocks in 100% DMSO. The enzyme working solution was a 1:3000 dilution of […] human cathepsin K into 100 mM of NaOAc, pH of 5.5, 10 mM DTT, 1.2 M NaCl.
Serial dilutions were performed in 100% DMSO. Columns 2-12 of an intermediate plate were filled with […] of 100% DMSO and column 1 was filled with […]. Next, […] of a 10 mM solution was added to column 1. A twofold serial dilution was prepared in columns 1-11 of the intermediate plate by sequential transfer of […] of the contents of each well in a column to the corresponding well of the next column, with mixing between each transfer. […] The fluorescence was monitored every 6 minutes for 72 minutes using a CytoFluor Series 4000 PerSeptive Biosystems multi-well fluorescence plate reader with the following settings: gain=50; 20 reads/well; 32° C.; lex=360±20 nm; and lem=440±120 nm.

On to `COP1(=O)N[C@@H](C(C)C)C=C[C@H](C(C)C)O1` (stereo partly drawn) [Scheme M], for which the “inhibition of the protease” value in assay [1] was 33.5%.
Take `CC(C)(C)OC(=O)NC(Cc1ccccc1)CN1CC=CCN(C[C@H](Cc2ccccc2)NC(=O)OC(C)(C)C)P1(=O)Cl` (stereo partly drawn) [Scheme N]: the “inhibition of the protease” value is 23% on HIV protease and 44.4% in assay [1]. Also, the “inhibition of human cathepsin K” value on human cathepsin K is listed as 34%.
Regarding `C=CCOP1(=O)OCC=CCN1[C@H](C(=O)OC)C(C)C` (stereo partly drawn) [Scheme L], in assay [1], the “inhibition of the protease” value was 34.7%.
On the same count and under the same terms, the figure for `COP1(=O)N(Cc2ccccc2)CC=CCN1Cc1ccccc1` [Scheme K] is 25.5%.
